US10072026B2, “Crystalline form of 3-((1R,3s,5S)-3-((7-((5-methyl-1H-pyrazol-3-yl)amino)-1,6-naphthyridin-5-yl)amino)-8-azabicyclo[3.2.1]octan-8-yl)propanenitrile” (priority 2015, dated 2018)

Legend:
[1] = system: IL-13 induced STAT6 phosphorylation in BEAS-2B human lung epithelial cells; assay: AlphaScreen cellular JAK potency assay, BEAS-2B; settings: for BEAS2B pIC50: IL-13 induced STAT6 phosphorylation, BEAS-2B cells; for IC50: Homo sapiens, BEAS-2B, read-out: BEAS2B pIC50 (converted)
[2] = system: IL-4 induced STAT6 phosphorylation in THP-1 human monocytic cells; assay: Cellular JAK potency assay, THP-1
JAK1 = JAK1 (Homo sapiens (Human), UniProt P23458); assay: LanthaScreen JAK biochemical assay (JAK1)
JAK2 = JAK2 (Homo sapiens (Human), UniProt O60674); assay: LanthaScreen JAK biochemical assay (JAK2)
[3] = IL-4 induced STAT6 phosphorylation, THP-1 cells
[4] = Homo sapiens, THP-1, read-out: THP-1 IL4 pIC50 (converted)
[5] = THP-1 cells, IL-4 induced STAT6 phosphorylation

Chain of JAK1 (P23458 whole entry): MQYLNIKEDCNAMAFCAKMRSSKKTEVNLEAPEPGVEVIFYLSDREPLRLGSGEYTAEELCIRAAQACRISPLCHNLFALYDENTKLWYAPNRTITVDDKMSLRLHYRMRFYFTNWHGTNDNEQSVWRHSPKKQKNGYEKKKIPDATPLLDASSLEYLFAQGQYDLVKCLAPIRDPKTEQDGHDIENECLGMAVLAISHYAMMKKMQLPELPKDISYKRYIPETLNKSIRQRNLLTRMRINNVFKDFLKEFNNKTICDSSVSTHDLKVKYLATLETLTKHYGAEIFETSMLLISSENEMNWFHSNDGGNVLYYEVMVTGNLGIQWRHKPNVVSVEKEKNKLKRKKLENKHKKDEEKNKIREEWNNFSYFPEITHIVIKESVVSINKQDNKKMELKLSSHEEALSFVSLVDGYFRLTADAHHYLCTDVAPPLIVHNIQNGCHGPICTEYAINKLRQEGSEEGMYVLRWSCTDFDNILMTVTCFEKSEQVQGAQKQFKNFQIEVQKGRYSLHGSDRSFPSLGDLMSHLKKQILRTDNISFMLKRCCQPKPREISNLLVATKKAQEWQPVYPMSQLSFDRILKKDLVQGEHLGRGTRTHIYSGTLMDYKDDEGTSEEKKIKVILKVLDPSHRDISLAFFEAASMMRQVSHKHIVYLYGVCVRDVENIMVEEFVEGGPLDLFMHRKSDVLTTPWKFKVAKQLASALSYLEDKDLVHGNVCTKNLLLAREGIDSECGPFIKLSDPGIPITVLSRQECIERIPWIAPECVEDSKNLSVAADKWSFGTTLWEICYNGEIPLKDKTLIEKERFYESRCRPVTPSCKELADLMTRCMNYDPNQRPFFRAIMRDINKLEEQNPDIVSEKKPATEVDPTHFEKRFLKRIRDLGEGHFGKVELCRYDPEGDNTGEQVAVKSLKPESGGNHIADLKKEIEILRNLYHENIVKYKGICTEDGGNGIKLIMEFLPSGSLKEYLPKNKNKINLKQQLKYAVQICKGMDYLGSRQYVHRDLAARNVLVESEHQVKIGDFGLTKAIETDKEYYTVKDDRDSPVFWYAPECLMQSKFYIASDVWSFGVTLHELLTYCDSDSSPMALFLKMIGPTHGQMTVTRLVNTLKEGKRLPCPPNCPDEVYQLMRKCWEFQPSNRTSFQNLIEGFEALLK
Chain of JAK2 (O60674 whole entry): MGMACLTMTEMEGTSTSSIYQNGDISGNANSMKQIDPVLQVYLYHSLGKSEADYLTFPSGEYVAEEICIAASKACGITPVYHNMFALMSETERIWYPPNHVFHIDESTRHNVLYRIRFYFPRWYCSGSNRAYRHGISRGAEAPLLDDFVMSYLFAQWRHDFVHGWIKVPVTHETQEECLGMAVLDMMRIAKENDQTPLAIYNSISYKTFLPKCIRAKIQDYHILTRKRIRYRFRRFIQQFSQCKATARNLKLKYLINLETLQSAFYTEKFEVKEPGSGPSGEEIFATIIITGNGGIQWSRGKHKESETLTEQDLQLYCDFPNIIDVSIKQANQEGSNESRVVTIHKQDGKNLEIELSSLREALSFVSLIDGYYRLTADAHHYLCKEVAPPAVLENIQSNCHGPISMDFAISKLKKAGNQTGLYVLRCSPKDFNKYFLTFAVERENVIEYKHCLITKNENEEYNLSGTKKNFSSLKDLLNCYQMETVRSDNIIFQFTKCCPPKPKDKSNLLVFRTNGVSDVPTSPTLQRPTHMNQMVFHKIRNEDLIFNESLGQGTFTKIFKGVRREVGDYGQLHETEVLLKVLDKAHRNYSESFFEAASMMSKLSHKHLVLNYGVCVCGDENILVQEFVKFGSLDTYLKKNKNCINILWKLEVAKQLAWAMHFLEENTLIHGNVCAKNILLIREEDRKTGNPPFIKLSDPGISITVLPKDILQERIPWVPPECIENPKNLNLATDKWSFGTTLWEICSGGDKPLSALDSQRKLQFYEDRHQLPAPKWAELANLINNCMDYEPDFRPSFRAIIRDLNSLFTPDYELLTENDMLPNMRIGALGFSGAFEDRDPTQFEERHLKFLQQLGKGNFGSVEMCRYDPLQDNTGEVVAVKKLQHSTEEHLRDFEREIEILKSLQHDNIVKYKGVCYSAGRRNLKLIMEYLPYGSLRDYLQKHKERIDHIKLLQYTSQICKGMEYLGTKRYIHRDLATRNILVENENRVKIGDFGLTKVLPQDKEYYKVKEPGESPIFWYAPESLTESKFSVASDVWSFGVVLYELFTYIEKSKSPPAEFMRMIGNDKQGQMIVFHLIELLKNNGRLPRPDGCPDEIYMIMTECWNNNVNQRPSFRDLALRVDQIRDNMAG

SMILES: Cc1cc(Nc2cc3ncccc3c(N[C@@H]3C[C@H]4CCC[C@@H](C3)N4Cc3ccc(C#N)nc3)n2)n[nH]1 [Example 1-54]
- BEAS2B pIC50 [1]: B (B represents a pEC50 value between 6.7 and 7.5 (EC50 between 200 nM and 32 nM))

SMILES: Cc1cc(Nc2cc3ncccc3c(N[C@@H]3C[C@H]4CCC[C@@H](C3)N4S(=O)(=O)N3CCCC3)n2)n[nH]1 [Example 4-27]
- THP-1 IL4 pIC50 [2, 3]: A (A represents a pEC50 value≥7.5 (EC50≤32 nM))
- BEAS2B pIC50 [1]: A (A represents a pEC50 value≥7.5 (EC50≤32 nM))

SMILES: Cc1cc(Nc2cc3ncccc3c(N[C@@H]3C[C@H]4CCC[C@@H](C3)N4S(=O)(=O)N3CCC3)n2)n[nH]1 [Example 4-29]
- JAK 1 (pKi) (JAK1): A (A represents a pKi value≥10 (Ki≤0.1 nM))
- THP-1 IL4 pIC50 [2, 3]: A (A represents a pEC50 value≥7.5 (EC50≤32 nM))
- BEAS2B pIC50 [1]: A (A represents a pEC50 value≥7.5 (EC50≤32 nM))

SMILES: COc1ccc2c(N[C@@H]3C[C@H]4CC[C@@H](C3)N4CCCC#N)nc(Nc3cc(C)[nH]n3)cc2n1 [Example 5-2]
- JAK 1 (pKi) (JAK1): B (B represents a pKi value between 9 and 10 (Ki between 1 nM and 0.1 nM))
- THP-1 IL4 pIC50 [2, 3]: B (B represents a pEC50 value between 6.7 and 7.5 (EC50 between 200 nM and 32 nM))
- BEAS2B pIC50 [1]: A (A represents a pEC50 value≥7.5 (EC50≤32 nM))

SMILES: COc1ccc2c(N[C@@H]3C[C@H]4CC[C@@H](C3)N4CC(C)C)nc(Nc3cc(C)[nH]n3)cc2n1 [Example 5-4]
- JAK 1 (pKi) (JAK1): B (B represents a pKi value between 9 and 10 (Ki between 1 nM and 0.1 nM))
- THP-1 IL4 pIC50 [2, 3]: A (A represents a pEC50 value≥7.5 (EC50≤32 nM))
- BEAS2B pIC50 [1]: A (A represents a pEC50 value≥7.5 (EC50≤32 nM))

SMILES: CCS(=O)(=O)N1[C@@H]2CC[C@H]1C[C@H](Nc1nc(Nc3cc(C)[nH]n3)cc3nc(CN4CCOCC4)ccc13)C2 [Example 5-16]
- IC50 [2, 4]: 31.6 to 200 nM
- IC50 [1]: 31.6 to 200 nM

SMILES: C=CCOC(=O)N1[C@@H]2CC[C@H]1C[C@H](Nc1nc(Nc3cc(C)[nH]n3)cc3nc(CN4CCOCC4)ccc13)C2 [Example 5-17]
- THP-1 IL4 pIC50 [2, 3]: B (B represents a pEC50 value between 6.7 and 7.5 (EC50 between 200 nM and 32 nM))
- BEAS2B pIC50 [1]: A (A represents a pEC50 value≥7.5 (EC50≤32 nM))

SMILES: Cc1cc(Nc2cc3nc(CN4CCOCC4)ccc3c(N[C@@H]3C[C@H]4CC[C@@H](C3)N4S(=O)(=O)N3CCC3)n2)n[nH]1 [Example 5-21]
- IC50 [2, 4]: < 31.6 nM
- IC50 [1]: < 31.6 nM

SMILES: Cc1cc(Nc2cc3nc(CN4CCOCC4)ccc3c(N[C@@H]3C[C@H]4CCC[C@@H](C3)N4S(=O)(=O)c3cccnc3)n2)n[nH]1 [Example 5-27]
- THP-1 IL4 pIC50 [2, 3]: A (A represents a pEC50 value≥7.5 (EC50≤32 nM))
- BEAS2B pIC50 [1]: A (A represents a pEC50 value≥7.5 (EC50≤32 nM))

SMILES: C=CCOC(=O)N1[C@@H]2CC[C@H]1C[C@H](Nc1nc(Nc3cc(C)[nH]n3)cc3ncc(C(=O)OC)cc13)C2 [Example 6-40]
- JAK 1 (pKi) (JAK1): B (B represents a pKi value between 9 and 10 (Ki between 1 nM and 0.1 nM))
- JAK 2 (pKi) (JAK2): B (B represents a pKi value between 9 and 10 (Ki between 1 nM and 0.1 nM))
- THP-1 IL4 pIC50 [2, 5]: A (A represents a pEC50 value≥7.5 (EC50≤32 nM))

SMILES: COC(=O)c1cnc2cc(Nc3cc(C)[nH]n3)nc(N[C@@H]3C[C@H]4CC[C@@H](C3)N4CCF)c2c1 [Example 6-43]
- JAK 1 (pKi) (JAK1): B (B represents a pKi value between 9 and 10 (Ki between 1 nM and 0.1 nM))
- JAK 2 (pKi) (JAK2): B (B represents a pKi value between 9 and 10 (Ki between 1 nM and 0.1 nM))
- THP-1 IL4 pIC50 [2, 5]: B (B represents a pEC50 value between 6.7 and 7.5 (EC50 between 200 nM and 32 nM))

SMILES: COC(=O)c1cnc2cc(Nc3cc(C)[nH]n3)nc(N[C@@H]3C[C@H]4CC[C@@H](C3)N4CCC(F)(F)F)c2c1 [Example 6-45]
- JAK 1 (pKi) (JAK1): B (B represents a pKi value between 9 and 10 (Ki between 1 nM and 0.1 nM))
- JAK 2 (pKi) (JAK2): B (B represents a pKi value between 9 and 10 (Ki between 1 nM and 0.1 nM))
- THP-1 IL4 pIC50 [2, 5]: B (B represents a pEC50 value between 6.7 and 7.5 (EC50 between 200 nM and 32 nM))

SMILES: COC(=O)c1cnc2cc(Nc3cc(C)[nH]n3)nc(N[C@@H]3C[C@H]4CC[C@@H](C3)N4C[C@H]3CCC(=O)O3)c2c1 [Example 6-46]
- JAK 1 (pKi) (JAK1): B (B represents a pKi value between 9 and 10 (Ki between 1 nM and 0.1 nM))
- JAK 2 (pKi) (JAK2): B (B represents a pKi value between 9 and 10 (Ki between 1 nM and 0.1 nM))
- THP-1 IL4 pIC50 [2, 5]: C (C represents a pEC50 value<6.7 (EC50>200 nM))

SMILES: Cc1cc(Nc2cc3ncc(S(C)(=O)=O)cc3c(N[C@@H]3C[C@H]4CC[C@@H](C3)N4CCC#N)n2)n[nH]1 [Example 6-50]
- JAK 1 (pKi) (JAK1): A (A represents a pKi value≥10 (Ki≤0.1 nM))
- JAK 2 (pKi) (JAK2): A (A represents a pKi value≥10 (Ki≤0.1 nM))
- THP-1 IL4 pIC50 [2, 5]: C (C represents a pEC50 value<6.7 (EC50>200 nM))

SMILES: Cc1cc(Nc2cc3ncc(S(C)(=O)=O)cc3c(N[C@@H]3C[C@H]4CC[C@@H](C3)N4C(=O)C(F)F)n2)n[nH]1 [Example 6-52]
- Ki (JAK1): 0.1 to 1 nM
- Ki (JAK2; read-out: JAK 2 (pKi) (converted)): 0.1 to 1 nM
- IC50 [2, 4]: > 200 nM

SMILES: Cc1cc(Nc2cc3ncc(S(C)(=O)=O)cc3c(N[C@@H]3C[C@H]4CC[C@@H](C3)N4CCF)n2)n[nH]1 [Example 6-54]
- JAK 1 (pKi) (JAK1): B (B represents a pKi value between 9 and 10 (Ki between 1 nM and 0.1 nM))
- JAK 2 (pKi) (JAK2): B (B represents a pKi value between 9 and 10 (Ki between 1 nM and 0.1 nM))
- THP-1 IL4 pIC50 [2, 5]: C (C represents a pEC50 value<6.7 (EC50>200 nM))

SMILES: COc1ccnc2cc(Nc3cc(C)[nH]n3)nc(N[C@@H]3C[C@H]4CC[C@@H](C3)N4CC(F)F)c12 [Example 7-8]
- JAK 1 (pKi) (JAK1): B (B represents a pKi value between 9 and 10 (Ki between 1 nM and 0.1 nM))
- JAK 2 (pKi) (JAK2): B (B represents a pKi value between 9 and 10 (Ki between 1 nM and 0.1 nM))
- THP-1 IL4 pIC50 [2, 5]: B (B represents a pEC50 value between 6.7 and 7.5 (EC50 between 200 nM and 32 nM))

SMILES: CCS(=O)(=O)N1[C@@H]2CC[C@H]1C[C@H](Nc1nc(Nc3cc(C)[nH]n3)c(F)c3ncccc13)C2 [Example 8-3]
- JAK 1 (pKi) (JAK1): B (B represents a pKi value between 9 and 10 (Ki between 1 nM and 0.1 nM))
- JAK 2 (pKi) (JAK2): B (B represents a pKi value between 9 and 10 (Ki between 1 nM and 0.1 nM))
- THP-1 IL4 pIC50 [2, 5]: A (A represents a pEC50 value≥7.5 (EC50≤32 nM))

SMILES: Cc1cnc2c(F)c(Nc3cc(C)[nH]n3)nc(N[C@@H]3C[C@H]4CC[C@@H](C3)N4S(C)(=O)=O)c2c1 [Example 8-17]
- JAK 1 (pKi) (JAK1): A (A represents a pKi value≥10 (Ki≤0.1 nM))
- JAK 2 (pKi) (JAK2): A (A represents a pKi value≥10 (Ki≤0.1 nM))
- THP-1 IL4 pIC50 [2, 5]: B (B represents a pEC50 value between 6.7 and 7.5 (EC50 between 200 nM and 32 nM))

SMILES: Cc1cnc2c(F)c(Nc3cc(C)[nH]n3)nc(N[C@@H]3C[C@H]4CC[C@@H](C3)N4CCC#N)c2c1 [Example 8-18]
- JAK 1 (pKi) (JAK1): B (B represents a pKi value between 9 and 10 (Ki between 1 nM and 0.1 nM))
- JAK 2 (pKi) (JAK2): B (B represents a pKi value between 9 and 10 (Ki between 1 nM and 0.1 nM))
- THP-1 IL4 pIC50 [2, 5]: B (B represents a pEC50 value between 6.7 and 7.5 (EC50 between 200 nM and 32 nM))

SMILES: Cc1cnc2c(F)c(Nc3cc(C)[nH]n3)nc(N[C@@H]3C[C@H]4CC[C@@H](C3)N4S(=O)(=O)N3CC(C#N)C3)c2c1 [Example 8-19]
- JAK 1 (pKi) (JAK1): B (B represents a pKi value between 9 and 10 (Ki between 1 nM and 0.1 nM))
- JAK 2 (pKi) (JAK2): B (B represents a pKi value between 9 and 10 (Ki between 1 nM and 0.1 nM))
- THP-1 IL4 pIC50 [2, 5]: C (C represents a pEC50 value<6.7 (EC50>200 nM))

SMILES: Cc1cnc2c(F)c(Nc3cc(C)[nH]n3)nc(N[C@@H]3C[C@H]4CCC[C@@H](C3)N4CCC#N)c2c1 [Example 8-21]
- JAK 1 (pKi) (JAK1): B (B represents a pKi value between 9 and 10 (Ki between 1 nM and 0.1 nM))
- JAK 2 (pKi) (JAK2): B (B represents a pKi value between 9 and 10 (Ki between 1 nM and 0.1 nM))
- THP-1 IL4 pIC50 [2, 5]: B (B represents a pEC50 value between 6.7 and 7.5 (EC50 between 200 nM and 32 nM))

SMILES: CCS(=O)(=O)N1[C@@H]2CCC[C@H]1C[C@H](Nc1nc(Nc3cc(C)[nH]n3)cc3ncccc13)C2 [Example 10, N^5-((1R,3s,5S)-9-(ethylsulfonyl)-9-azabicyclo[3.3.1]nonan-3-yl)-N^7-(5-methyl-1H-pyrazol-3-yl)-1,6-naphthyridine-5,7-diamine]
- IC50 [2, 4]: < 31.6 nM
- IC50 [1]: < 31.6 nM

SMILES: Cc1cc(Nc2cc3nc(CN4CCOCC4)ccc3c(N[C@@H]3C[C@H]4CC[C@@H](C3)N4CC(F)(F)F)n2)n[nH]1 [Example 15, N^7-(5-methyl-1H-pyrazol-3-yl)-2-(morpholinomethyl)-N^5-((1R,3s,5S)-8-(2,2,2-trifluoroethyl)-8-azabicyclo[3.2.1]octan-3-yl)-1,6-naphthyridine-5,7-diamine]
- IC50 [2, 4]: < 31.6 nM
- IC50 [1]: < 31.6 nM

SMILES: CNC(=O)CN1[C@@H]2CCC[C@H]1C[C@H](Nc1nc(Nc3cc(C)[nH]n3)cc3ncccc13)C2 [Example 17, N-methyl-2-((1R,3s,5S)-3-((7-((5-methyl-1H-pyrazol-3-yl)amino)-1,6-naphthyridin-5-yl)amino)-9-azabicyclo[3.3.1]nonan-9-yl)acetamide]
- IC50 [2, 4]: 31.6 to 200 nM
- IC50 [1]: 31.6 to 200 nM
